These results are taken from patent publication US10577366B2, “Crystalline forms of a compound that inhibits bromodomain” (Plexxikon Inc., priority 2017, dated 2020).

Holding throughout (type): physicochemical
A short description of data set [1]: Slurry turnover between forms in ACN at various temperatures. Conditions: for Solid form after slurry turnover (XRPD): 1:1 mass mixture with Form A in ACN. As to the method:
The conversion relationship between anhydrous Compound I Form A and Compound I Form C was investigated via slurry turnover at various temperatures (RT (25±3° C.) or 50° C.) as follows.
About 5 mg of Compound I Form A was added to 1.0 mL of ACN, and the suspension was stirred at 50° C. for 2 hours to reach equilibrium. The suspension was filtered into a vial, which included 5 mg of Compound I Form A and Compound I Form C (mass ratio of 1:1). The mixture was stirred at a desired temperature for 4 days, and the solids were then analyzed by XRPD and DSC.
The conversion relationship between anhydrate Compound I Form A and Compound I Form E was investigated via slurry turnover at various temperatures (RT (25±3° C.) or 50° C.) and water activities as follows.
For various temperatures: About 5 mg of Compound I Form A was added to 1.0 mL of ACN, and the suspension was stirred at 50° C. for 2 hours to reach equilibrium. The suspension was filtered into a vial, which included 2 mg of Compound I Form A and Compound I Form E (mass ratio of 1:1). The mixture was stirred at a desired temperature for 4 days, and the solids were then analyzed by XRPD.

Data set [2] in a line: Dynamic vapor sorption (DVS) isotherm, solid form stability as a function of humidity. Particulars: for Water uptake: DVS at 25° C., up to 80% RH, solids pre-dried at 0% RH; for Form change after DVS test according to XRPD: after DVS at 25° C., 0% RH to 95% RH. The procedure:
DVS was measured via a SMS (Surface Measurement Systems) DVS Intrinsic. The relative humidity at 25° C. were calibrated against deliquescence point of LiCl, Mg(NO3)2 and KCl.
DVS isotherm plot was collected at 25° C. to investigate the solid form stability as a function of humidity for Form A. Solids were pre-dried at 0% RH to remove surface solvent or water before DVS.
DVS isotherm plot was collected at 25° C. to investigate the solid form stability as a function of humidity for Form C. Solids were pre-dried at 0% RH to remove surface solvent or water before DVS. Water uptake of 0.6% was observed up to 80% RH (FIG. 9).

The nature of data set [3]: Solid form conversion on heating (XRPD / DSC). As to the method:
For XRPD analyses provided herein, a PANalytical Empyrean X-ray powder diffract meter was used, and the XRPD parameters used are summarized in Table 1.
DSC was performed using a TA Q200/Q2000 DSC from TA Instruments. TGA data were collected using a TA Q500/Q5000 TGA from TA Instruments. […]
Compound I Form C was prepared via anti-solvent addition in acetone/n-heptane at RT. […] (peak temperature) followed by two endotherms at 232.8° C. and 265.7° C. (onset temperature). […] It is also contemplated that Form C may be an anhydrate based on the characterization results. […]

Data set [4] is described as follows: Slurry turnover between Form A and E at various water activities. Particulars: 21 days, XRPD. As to the method: For various water activities: About 10 mg of Compound I Form A was added to 1.0 mL EtOH/H2O with different aw (Table 12), and the suspension was stirred at RT for 1 hour to reach equilibrium. The suspension was filtered into a vial, which included 2 mg of Compound I Form A and Compound I Form E (mass ratio of 1:1). The mixture was stirred at the desired aw for 21 days, and the solids were then analyzed by XRPD.

Where [5] appears, read: stirred 4 days at RT (25±3° C.).

“Also recorded” adds a separate entry of the source.

For `Cc1noc(C)c1-c1cnc2c(-c3ccc(C(=O)O)cc3)cn(C(C)(c3ccccn3)c3ccccn3)c2c1` [Form A, 4-(1-(1,1-di(pyridin-2-yl)ethyl)-6-(3,5-dimethylisoxazol-4-yl)-1H-pyrrolo[3,2-b]pyridin-3-yl)benzoic acid], the “Stability relationship between Form A and Form C” value in data set [1] (from slurry turnover at RT and 50° C. and DSC, monotropic) is recorded as “more stable”. For the same molecule, in data set [2], the Water uptake is 0.5% and the “Form change after DVS test according to XRPD” value is “No form change”. In data set [2] (judged from DVS water uptake up to 80% RH at 25° C.), the Hygroscopicity entry was “slightly hygroscopic”. For the same molecule, the “Relative stability of Form A versus Form C” value in data set [3] (based on the Burger-Ramberger Rules, before melting) is listed as “monotropically more stable than Form C”.
As to `Cc1noc(C)c1-c1cnc2c(-c3ccc(C(=O)O)cc3)cn(C(C)(c3ccccn3)c3ccccn3)c2c1` [Form B, 4-(1-(1,1-di(pyridin-2-yl)ethyl)-6-(3,5-dimethylisoxazol-4-yl)-1H-pyrrolo[3,2-b]pyridin-3-yl)benzoic acid], in data set [3] (after heating to 110° C.), the “Solid form after heating (XRPD)” value is reported as “converted to Form A”.
As to `Cc1noc(C)c1-c1cnc2c(-c3ccc(C(=O)O)cc3)cn(C(C)(c3ccccn3)c3ccccn3)c2c1` [Form C, 4-(1-(1,1-di(pyridin-2-yl)ethyl)-6-(3,5-dimethylisoxazol-4-yl)-1H-pyrrolo[3,2-b]pyridin-3-yl)benzoic acid], the “Solid form after slurry turnover (XRPD)” value in data set [1] (stirred 4 days at 50° C.) is on record as “converted to Form A”. Moreover, the “Solid form after slurry turnover (XRPD)” value in data set [1] (setting [5]) is “converted to Form A”. In addition, in data set [2], the Water uptake turned out to be 0.6% and the “Form change after DVS test according to XRPD” value was “Phase transition of Form C to Form A”. Besides, the “Solid form after heating (XRPD/DSC)” value in data set [3] (after heating above the exothermic peak (174.5° C., peak temperature)) is given as “completely converted to Form A; also recorded: convert to Form A”.
As to `Cc1noc(C)c1-c1cnc2c(-c3ccc(C(=O)O)cc3)cn(C(C)(c3ccccn3)c3ccccn3)c2c1` [Form D, 4-(1-(1,1-di(pyridin-2-yl)ethyl)-6-(3,5-dimethylisoxazol-4-yl)-1H-pyrrolo[3,2-b]pyridin-3-yl)benzoic acid], the “Solid form after heating (XRPD)” value in data set [3] (after heating to 145° C. and cooling to ambient conditions) is on record as “converted to Form C”.
With `Cc1noc(C)c1-c1cnc2c(-c3ccc(C(=O)O)cc3)cn(C(C)(c3ccccn3)c3ccccn3)c2c1` [Form E, 4-(1-(1,1-di(pyridin-2-yl)ethyl)-6-(3,5-dimethylisoxazol-4-yl)-1H-pyrrolo[3,2-b]pyridin-3-yl)benzoic acid], the “Solid form after slurry turnover (XRPD)” value in data set [1] (stirred 4 days at 50° C.) and in data set [1] (setting [5]) was “converted to Form A” each time. The “Final Form” value in data set [4] (Aw 0.298 (EtOH/H2O 952:48 v/v)), in data set [4] (Aw 0.605 (EtOH/H2O 855:145 v/v)) and in data set [4] (Aw 0.900 (EtOH/H2O 450:550 v/v)) was “converted to Form A” each time. In addition, the “Solid form after heating (XRPD)” value in data set [3] (after heating to 150° C.) is reported as “converted to Form A”.
